{
  "source": "BindingDB's records for doi:10.1016/s1074-5521(99)80118-5",
  "about": "(Princeton University, 1999)",
  "target": "T1, Tyrosine-protein kinase ZAP-70 (Homo sapiens, UniProt P43403)",
  "T1 sequence (P43403 whole entry)": "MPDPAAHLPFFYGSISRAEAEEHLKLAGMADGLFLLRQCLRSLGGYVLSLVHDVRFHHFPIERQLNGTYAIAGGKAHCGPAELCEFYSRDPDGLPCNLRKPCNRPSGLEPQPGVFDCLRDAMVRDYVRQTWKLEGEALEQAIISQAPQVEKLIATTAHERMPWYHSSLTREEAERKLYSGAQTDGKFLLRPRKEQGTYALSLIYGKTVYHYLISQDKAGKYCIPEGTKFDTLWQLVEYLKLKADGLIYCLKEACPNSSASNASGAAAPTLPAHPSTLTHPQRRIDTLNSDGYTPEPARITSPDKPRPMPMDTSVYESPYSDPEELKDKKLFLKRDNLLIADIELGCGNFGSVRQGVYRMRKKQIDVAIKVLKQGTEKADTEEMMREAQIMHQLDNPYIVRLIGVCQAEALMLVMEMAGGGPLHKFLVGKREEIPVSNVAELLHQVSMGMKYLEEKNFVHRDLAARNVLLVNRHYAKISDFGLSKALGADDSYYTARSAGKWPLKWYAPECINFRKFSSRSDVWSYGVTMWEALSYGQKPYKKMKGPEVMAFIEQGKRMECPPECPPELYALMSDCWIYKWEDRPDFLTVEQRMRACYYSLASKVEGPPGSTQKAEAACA",
  "experiment": "Inhibition Assay",
  "description": "Inhibition of protein tyrosine kinases",
  "data": [
    {"smiles": "Cc1ccc(-c2nn(C(C)(C)C)c3ncnc(N)c23)cc1", "values": [
      {"measurement": "IC50", "result": "> 100", "unit": "µM"}
    ]}
  ]
}
